Format in all cases: functional
Experiment [1] has as its system Mythimna separata. Nature of the experiment: Stomach toxicity against third-instar Mythimna separata (Oriental armyworm) in compound treated fresh corn leaves assessed as insecticidal activity at 50 mg/L measured after 4 days by leaf-dip method.
In experiment [2] the test system is Mythimna separata. In words: Stomach toxicity against third-instar Mythimna separata (Oriental armyworm) in compound treated fresh corn leaves assessed as insecticidal activity at 25 mg/L measured after 4 days by leaf-dip method.
In experiment [3] the test system is Mythimna separata. Nature of the experiment: Stomach toxicity against third-instar Mythimna separata (Oriental armyworm) in compound treated fresh corn leaves assessed as insecticidal activity at 100 mg/L measured after 4 days by leaf-dip method.
Experiment [4] concerns Ostrinia nubilalis. Nature of the experiment: Stomach toxicity against third-instar Ostrinia nubilalis (European corn borer) in compound treated fresh corn leaves assessed as insecticidal activity at 200 mg/L measured after 4 days by leaf-dip method.
The subject of experiment [5] is Spodoptera exigua. Nature of the experiment: Stomach toxicity against third-instar Spodoptera exigua in compound treated fresh cabbage leaves assessed as insecticidal activity at 100 mg/L measured after 3 days by leaf-dip method.
Experiment [6] concerns Plutella xylostella. In words: Stomach toxicity against third-instar Plutella xylostella (diamondback moth) in compound treated fresh cabbage leaves assessed as insecticidal activity at 200 mg/L measured after 3 days by leaf-dip method.
For experiment [7], the system named is Spodoptera exigua. Nature of the experiment: Stomach toxicity against third-instar Spodoptera exigua in compound treated fresh cabbage leaves assessed as insecticidal activity at 200 mg/L measured after 3 days by leaf-dip method.
For experiment [8], the system named is Mythimna separata. In words: Stomach toxicity against third-instar Mythimna separata (Oriental armyworm) in compound treated fresh corn leaves assessed as insecticidal activity at 200 mg/L measured after 4 days by leaf-dip method.
For experiment [9], the system named is Mythimna separata. Nature of the experiment: Stomach toxicity against third-instar Mythimna separata (Oriental armyworm) in compound treated fresh corn leaves assessed as insecticidal activity at 10 mg/L measured after 4 days by leaf-dip method.
The subject of experiment [10] is Spodoptera exigua. Nature of the experiment: Stomach toxicity against third-instar Spodoptera exigua in compound treated fresh cabbage leaves assessed as insecticidal activity at 50 mg/L measured after 3 days by leaf-dip method.
Experiment [11] concerns Plutella xylostella. Nature of the experiment: Stomach toxicity against third-instar Plutella xylostella (diamondback moth) in compound treated fresh cabbage leaves assessed as insecticidal activity at 50 mg/L measured after 3 days by leaf-dip method.
The test system of experiment [12] is Spodoptera exigua. Nature of the experiment: Stomach toxicity against third-instar Spodoptera exigua in compound treated fresh cabbage leaves assessed as insecticidal activity at 10 mg/L measured after 3 days by leaf-dip method.
Experiment [13] concerns Plutella xylostella. Nature of the experiment: Stomach toxicity against third-instar Plutella xylostella (diamondback moth) in compound treated fresh cabbage leaves assessed as insecticidal activity at 100 mg/L measured after 3 days by leaf-dip method.

Regarding `Cc1cc(C)cc(C(=O)N(NC(=O)c2cccc3c2OCO3)C(C)(C)C)c1`, the Activity turned out to be 100% in [1]; 30% in experiment [2]; 100% in [3]; 30% in [4]; 80% in experiment [5]; 0% in experiment [6]. Also, the Activity in experiment [7] and in experiment [8] was 100% each time.

As for `Cc1cc(C)cc(C(=O)N(NC(=O)c2cccc3c2CCCO3)C(C)(C)C)c1`, the Activity in experiment [4] was 0%; in experiment [6] it was 0%; in [7], 0%; in [8], 30%.

Take `Cc1cc(C)cc(C(=O)N(NC(=O)c2ccc3c(c2C)OC(C)C3)C(C)(C)C)c1` (configuration not stated) [FUXIAN]: the Activity in [9], in experiment [1], in [2], in experiment [3], in [4] and in experiment [10] was 100% in each case. For the same compound, the Activity in experiment [5] was 100%; in experiment [6], 100%; in [7], 100%; in experiment [8] it was 100%; in [11], 100%; in experiment [12], 90%. Also, in experiment [13], the Activity is given as 100%.

In the case of `Cc1cc2c(C(=O)NN(C(=O)c3ccc(Cl)cc3)C(C)(C)C)cccc2o1`, the Activity in experiment [8] worked out at 0%.

For the compound `Cc1cc(C)cc(C(=O)N(NC(=O)c2cccc3c2CC(C)O3)C(C)(C)C)c1` (configuration not stated), the Activity amounted to 60% in experiment [9]; 100% in [1]; 100% in experiment [2]; 100% in [3]; 70% in [4]; 100% in [10]. Moreover, the Activity in [5] is given as 100%; in experiment [6], 100%; in [7], 100%; in experiment [8], 100%; in experiment [11], 50%; in [12], 80%. Moreover, the Activity in experiment [13] is on record as 100%.

In the case of `Cc1cc(C)cc(C(=O)N(NC(=O)c2ccc3c(c2C)CCCO3)C(C)(C)C)c1` [CHROMAFENOZIDE], the Activity in experiment [9], in experiment [1], in experiment [2], in experiment [3], in [4] and in [10] was 100% each time. The Activity in experiment [5], in experiment [6], in experiment [7], in experiment [8], in [11] and in [12] was 100% in each case. Further, the Activity in experiment [13] amounted to 100%.

On to `Cc1cc(C)cc(C(=O)N(NC(=O)C2CCCCC2)C(C)(C)C)c1`, for which the figures for the Activity in experiment [1], in experiment [3] and in [8] were 20%, 100% and 100%, respectively.

For `Cc1cc(C)cc(C(=O)N(NC(=O)c2ccccc2)C(C)(C)C)c1`, the Activity stood at 80% in experiment [9]; 100% in experiment [1]; 100% in experiment [2]; 100% in [3]; 100% in experiment [8].

With `Cc1cc(C)cc(C(=O)N(NC(=O)c2ccc3cc(C)oc3c2)C(C)(C)C)c1`, the Activity is listed as 50% in experiment [9]; 100% in experiment [1]; 100% in experiment [2]; 100% in experiment [3]; 40% in [4]; 100% in experiment [10]. Also, the Activity in [5] turned out to be 100%; in experiment [6], 100%; in experiment [7] it was 100%; in experiment [8], 100%; in experiment [11], 70%; in experiment [12], 90%. Besides, the Activity in experiment [13] is listed as 100%.

Consider `Cc1cc(C)cc(C(=O)N(NC(=O)C2CCCC3OC(C)CC32)C(C)(C)C)c1` (configuration not stated), for which the Activity in experiment [8] came to 0%.

Take `Cc1cc2c(C(=O)NN(C(=O)c3cc([N+](=O)[O-])cc([N+](=O)[O-])c3)C(C)(C)C)cccc2o1`: in experiment [8], the Activity amounted to 0%.

In the case of `Cc1cc(C)cc(C(=O)N(NC(=O)c2cccc3c2OCCO3)C(C)(C)C)c1`, in [8], the Activity was 0%.

Regarding `Cc1cc2c(C(=O)NN(C(=O)c3ccccc3Cl)C(C)(C)C)cccc2o1`, the Activity in [8] stood at 0%.

For `Cc1cc(C)cc(C(=O)N(NC(=O)c2cccc3oc(C)cc23)C(C)(C)C)c1`, the Activity in experiment [4] came to 40%; in experiment [6], 50%; in experiment [7], 70%; in [8], 80%.

Turning to `Cc1cc(C)cc(C(=O)N(NC(=O)c2ccc3c(c2)OC(C)C3)C(C)(C)C)c1` (configuration not stated), the Activity is 70% in experiment [9]; 100% in experiment [1]; 100% in experiment [2]; 100% in experiment [3]; 60% in experiment [4]; 100% in experiment [10]. Moreover, the Activity stood at 100% in [5]; 80% in [6]; 100% in experiment [7]; 100% in experiment [8]; 90% in [12].

As for `COc1cccc(C(=O)NN(C(=O)c2cc(C)cc(C)c2)C(C)(C)C)c1C` [METHOXYFENOZIDE], the Activity in experiment [9], in [1], in experiment [2], in [3], in experiment [4] and in experiment [10] was 100% in each case. Besides, the Activity in experiment [5], in experiment [6], in experiment [7], in experiment [8], in [11] and in experiment [12] was 100% each time. Moreover, in [13], the Activity is listed as 100%.

As to `Cc1cc2c(C(=O)NN(C(=O)c3cc(Cl)cc(Cl)c3)C(C)(C)C)cccc2o1`, in experiment [8], the Activity came out at 0%.

Take `Cc1cc2c(C(=O)NN(C(=O)c3cccc(Cl)c3)C(C)(C)C)cccc2o1`: the Activity in [8] is 0%.

The record behind these values is ChEMBL document CHEMBL3045117, “Synthesis, crystal structures, insecticidal activities, and structure--activity relationships of novel N'-tert-Butyl-N'-substituted-benzoyl-N-[di(octa)hydro]benzofuran{(2,3-dihydro)benzo[1,3]([1,4])dioxine}carbohydrazide derivatives” (2011).
